In one assay the target is T1, Aurora1 (Aurora-B) (Homo sapiens, UniProt Q96GD4).
T1 construct: Aurora-B: the full length protein (His tagged in N-terminal) has been co expressed in SF9 cells; poly-histidine (N); made in house; host or cells: SF9 cells
Put plainly: Aurora 1 (Aurora B) kinase radioactivity scintillation assay using nickel chelate Flash plates. To be noted: 10 nM Aurora-B (co expressed with C3 fragment of INCEP), 500 nM NuMA substrate, 1 μM ATP with [33P] ATP, 5 mM MgCl2, 30 minutes, 37° C. Format: biochemical. As to the method:
(§1) Aurora 1 and 2 (Respectively. Aurora B and A)
(§2) The inhibitory effect of compounds with respect to the Aurora 1 and 2 kinases is determined with a radioactivity scintillation assay using nickel chelate.
(§3) The kinase activity of Aurora is measured by the phosphorylation of NuMA-histidine substrate in the presence of radiolabelled ATP ([^33P] ATP) using 96 well Flash plates where the nickel-chelate is linked to the surface of the microplate. The amount of ^33P incorporated to the substrate NuMA is proportional to the aurora activity.
(§4) The Flash plates used are nickel-chelate 96 well plates (Perkin Elmer, model SMP107).
(§5) The products to be evaluated are incubated in a 100 μl reaction volume per well in the presence of 10 nM of Aurora-B or Aurora-A, 500 nM of NuMA substrate in the following buffer: 50 mM of NaCl, 5 mM MgCl2, (Aurora-B) or 10 mM MgCl2 (Aurora-A) and 1 mM of DTT at 37° C.
(§6) 80 μL of enzyme/substrate incubation buffer is distributed in each well, followed by 10 μL of solution of compound to be measured with various concentrations. The reaction is started by adding 1 μM of ATP (final concentration) containing 0.2 μCi of [^33P] ATP (10 μL). After 30 minutes of incubation the reaction is stopped by removal of the reaction mixture and each well is washed twice with 300 μl of buffer Tris/HCl. The radioactivity is measured in each well using a Packard Top count scintillation counter instrument.
(§7) The enzymatic activity is expressed as counts per minute obtained in 30 minutes after subtraction of the background noise (reaction medium without enzyme). The measurement is expressed as percentage of inhibition of Aurora activity versus the control. To generate IC50 values, compounds of the invention are tested at different concentration and the percentage of inhibition are plotted as function of compound concentration, IC50s are calculated using the Xlfit 4 curve fitting software.

A further assay concerns the target T2, Aurora2 (Aurora-A) (Homo sapiens, UniProt O14965).
T2 construct: Aurora-A: the full length recombinant protein including an N-terminal poly-histidine tail has been expressed in E. coli; poly-histidine (N); made in house; host or cells: E. coli
T2 sequence (O14965 1-403): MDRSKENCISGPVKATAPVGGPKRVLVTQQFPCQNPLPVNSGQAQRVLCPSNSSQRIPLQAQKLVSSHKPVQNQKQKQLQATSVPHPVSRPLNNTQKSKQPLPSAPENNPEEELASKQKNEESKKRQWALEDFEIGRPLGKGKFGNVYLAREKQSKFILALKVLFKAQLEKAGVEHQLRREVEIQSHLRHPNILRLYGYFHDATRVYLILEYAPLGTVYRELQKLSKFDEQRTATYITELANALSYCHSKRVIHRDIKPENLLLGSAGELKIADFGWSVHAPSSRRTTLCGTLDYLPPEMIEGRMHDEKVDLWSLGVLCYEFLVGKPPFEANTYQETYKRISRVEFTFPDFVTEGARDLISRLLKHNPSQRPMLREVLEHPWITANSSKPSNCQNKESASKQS
In words: Aurora 2 (Aurora A) kinase radioactivity scintillation assay using nickel chelate Flash plates. The assay is classed as biochemical. The following applies: 10 nM Aurora-A, 500 nM NuMA substrate, 1 μM ATP with [33P] ATP, 10 mM MgCl2, 30 minutes, 37° C. As to the method: as §1, §2, §3, §4, §5, §6, §7

21 compounds from patent US8163768B2, “1,4-dihydropyridine-fused heterocycles, process for preparing the same, use and compositions containing them” (Aventis Pharma S.A.., priority 2005, dated 2012) can be followed below.

Broadly, the IC50 is the point on the concentration scale where inhibition reaches its midpoint.

T1 sequence (Q96GD4 whole entry, species assumed): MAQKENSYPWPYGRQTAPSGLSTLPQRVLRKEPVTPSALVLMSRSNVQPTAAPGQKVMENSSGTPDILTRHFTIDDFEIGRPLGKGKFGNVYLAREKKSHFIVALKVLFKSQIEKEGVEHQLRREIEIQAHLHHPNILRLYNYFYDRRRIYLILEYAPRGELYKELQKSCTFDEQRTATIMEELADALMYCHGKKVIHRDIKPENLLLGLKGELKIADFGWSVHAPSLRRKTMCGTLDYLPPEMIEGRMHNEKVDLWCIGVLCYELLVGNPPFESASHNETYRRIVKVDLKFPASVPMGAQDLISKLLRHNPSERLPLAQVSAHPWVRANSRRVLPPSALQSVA
T1 sequence (Q9NQS7 821-918 partner limits assumed, species assumed): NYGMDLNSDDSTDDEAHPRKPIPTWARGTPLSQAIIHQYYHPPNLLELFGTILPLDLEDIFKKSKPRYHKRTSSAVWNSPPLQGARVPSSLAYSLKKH

Take `O=C1CCCC2=C1[C@H](c1ccc(Sc3nc4ccccc4[nH]3)o1)c1c[nH]nc1N2` (single isomer, unassigned) [120a (+), 4-[5-(1H-Benzimidazol-2-ylsulfanyl)-furan-2-yl]-1,4,6,7,8,9-hexahydro-pyrazolo[3,4-b]quinolin-5-one]: the IC50 at Aurora1 (Aurora-B) is 0.004 µM.
With `O=C1CCCC2=C1[C@H](c1ccc(Sc3nc4ccccc4[nH]3)o1)c1c[nH]nc1N2` (single isomer, unassigned) [120b (−), 4-[5-(1H-Benzimidazol-2-ylsulfanyl)-furan-2-yl]-1,4,6,7,8,9-hexahydro-pyrazolo[3,4-b]quinolin-5-one], on Aurora1 (Aurora-B), the IC50 was 0.075 µM.
As to `O=C1CCCC2=C1C(c1ccc(Sc3nc4ccccc4[nH]3)o1)c1cn[nH]c1N2` (stereo not shown) [Example 3, 4-[5-(1H-Benzimidazol-2-ylsulfanyl)-furan-2-yl]-1,4,6,7,8,9-hexahydro-pyrazolo[3,4-b]quinolin-5-one], the IC50 on Aurora1 (Aurora-B) amounted to 0.008 µM.
Consider `CC1(C)CC(=O)C2=C(C1)Nc1n[nH]cc1C2c1ccc(Sc2nc3ccccc3[nH]2)o1` (stereo not shown) [Example 4, 4-[5-(1H-Benzimidazol-2-ylsulfanyl)-furan-2-yl]-7,7-dimethyl-2,4,6,7,8,9-hexahydro-pyrazolo[3,4-b]quinolin-5-one], for which the IC50 at Aurora2 (Aurora-A) amounted to 0.015 µM; on Aurora1 (Aurora-B), 0.004 µM.
With `O=C1CNCC2=C1C(c1ccc(Sc3nc4ccccc4[nH]3)o1)c1c[nH]nc1N2` (stereo not shown) [Example 20, 4-[5-(1H-Benzimidazol-2-ylsulfanyl)-furan-2-yl]-2,4,6,7,8,9-hexahydro-pyrazolo[3,4-b]-1,7-naphthyridin-5-one; compound with trifluoro-acetic acid], the IC50 on Aurora1 (Aurora-B) worked out at 0.083 µM.
Turning to `CC1CC(=O)C2=C(C1)Nc1n[nH]cc1C2c1ccc(Sc2nc3ccccc3[nH]2)o1` (stereo not shown) [Example 28, 4-[5-(1H-Benzimidazol-2-ylsulfanyl)-furan-2-yl]-7-methyl-2,4,6,7,8,9-hexahydro-pyrazolo[3,4-b]quinolin-5-one; compound with trifluoro-acetic acid], the IC50 stood at 0.017 µM on Aurora2 (Aurora-A) and 0.005 µM at Aurora1 (Aurora-B).
For `O=C1CC(c2ccccc2)CC2=C1C(c1ccc(Sc3nc4ccccc4[nH]3)o1)c1c[nH]nc1N2` (stereo not shown) [Example 29, 4-[5-(1H-Benzimidazol-2-ylsulfanyl)-furan-2-yl]-7-phenyl-2,4,6,7,8,9-hexahydro-pyrazolo[3,4-b]quinolin-5-one; compound with trifluoro-acetic acid], in that order: 0.1 µM and 0.036 µM.
Take `CC1(C)CCC2=C(C1=O)C(c1ccc(Sc3nc4ccccc4[nH]3)o1)c1c[nH]nc1N2` (stereo not shown) [Example 30, 4-[5-(1H-Benzimidazol-2-ylsulfanyl)-furan-2-yl]-6,6-dimethyl-2,4,6,7,8,9-hexahydro-pyrazolo[3,4-b]quinolin-5-one; compound with trifluoro-acetic acid]: the values for the concentration for half-maximal inhibition (IC50) on Aurora2 (Aurora-A) and at Aurora1 (Aurora-B) were 0.02 µM and 0.005 µM, respectively.
As for `CC(C)C1CC(=O)C2=C(C1)Nc1n[nH]cc1C2c1ccc(Sc2nc3ccccc3[nH]2)o1` (stereo not shown) [Example 31, 4-[5-(1H-Benzimidazol-2-ylsulfanyl)-furan-2-yl]-7-isopropyl-2,4,6,7,8,9-hexahydro-pyrazolo[3,4-b]quinolin-5-one; compound with trifluoro-acetic acid], the IC50 at Aurora2 (Aurora-A) came out at 0.014 µM; at Aurora1 (Aurora-B) it was 0.004 µM.
`COc1ccc(C2CC(=O)C3=C(C2)Nc2n[nH]cc2C3c2ccc(Sc3nc4ccccc4[nH]3)o2)cc1` (stereo not shown) [Example 32, 4-[5-(1H-Benzimidazol-2-ylsulfanyl)-furan-2-yl]-7-(4-methoxy-phenyl)-2,4,6,7,8,9-hexahydro-pyrazolo[3,4-b]quinolin-5-one; compound with trifluoro-acetic acid]: the IC50 at Aurora2 (Aurora-A) stood at 0.125 µM; on Aurora1 (Aurora-B) it was 0.05 µM.
For `O=C1CC(c2ccc(Cl)cc2Cl)CC2=C1C(c1ccc(Sc3nc4ccccc4[nH]3)o1)c1c[nH]nc1N2` (stereo not shown) [Example 33, 4-[5-(1H-Benzimidazol-2-ylsulfanyl)-furan-2-yl]-7-(2,4-dichloro-phenyl)-2,4,6,7,8,9-hexahydro-pyrazolo[3,4-b]quinolin-5-one; compound with trifluoro-acetic acid] the same measures were 0.179 µM and 0.032 µM.
With `O=C1CCCC2=C1C(c1ccc(Sc3ccccn3)o1)c1c[nH]nc1N2` (stereo not shown) [Example 40], the IC50 at Aurora1 (Aurora-B) was determined as 3.4 µM.
In the case of `Cn1c(Sc2ccc(C3C4=C(CNCC4=O)Nc4n[nH]cc43)o2)nc2ccccc21` (stereo not shown) [Example 83, 4-[5-(1-Methyl-1H-benzimidazol-2-ylsulfanyl)-furan-2-yl]-2,4,6,7,8,9-hexahydro-pyrazolo[3,4-b]-1,7-naphthyridin-5-one; compound with trifluoro-acetic acid], on Aurora1 (Aurora-B), the IC50 came to 5.02 µM.
Still for that read-out and setting: the value for `CCOC(=O)c1[nH]cc2c1NC1=C(C(=O)CNC1)C2c1ccc(Sc2nc3ccccc3[nH]2)o1` (stereo not shown) [Example 104, 9-[5-(1H-Benzimidazol-2-ylsulfanyl)-furan-2-yl]-8-oxo-4,5,6,7,8,9-hexahydro-2H-pyrrolo[3,4-b]-1,7-naphthyridine-3-carboxylic acid ethyl ester; compound with trifluoro-acetic acid] was 0.007 µM; that for `CCOC(=O)c1[nH]cc2c1NC1=C(C(=O)CC(C)(C)C1)C2c1ccc(Sc2nc3ccccc3[nH]2)o1` (stereo not shown) [Example 106, 9-[5-(1H-Benzimidazol-2-ylsulfanyl)-furan-2-yl]-6,6-dimethyl-8-oxo-4,5,6,7,8,9-hexahydro-2H-pyrrolo[3,4-b]quinoline-3-carboxylic acid ethyl ester] was 0.031 µM.
The same measure, in the same setting: the value for `CCOC(=O)c1[nH]cc2c1NC1=C(C(=O)CCC1)C2c1ccc(Sc2nc3cc(F)c(F)cc3[nH]2)o1` (stereo not shown) [Example 114, 9-[5-(5,6-Difluoro-1H-benzimidazol-2-ylsulfanyl)-furan-2-yl]-8-oxo-4,5,6,7,8,9-hexahydro-2H-pyrrolo[3,4-b]quinoline-3-carboxylic acid ethyl ester] was 0.006 µM.
As to `CCOC(=O)c1[nH]cc2c1NC1=C(C(=O)CCC1)C2c1ccc(Sc2nc3ccc(F)c(F)c3[nH]2)o1` (stereo not shown) [Example 121, 9-[5-(6,7-Difluoro-1H-benzimidazol-2-ylsulfanyl)-furan-2-yl]-8-oxo-4,5,6,7,8,9-hexahydro-2H-pyrrolo[3,4-b]quinoline-3-carboxylic acid ethyl ester], the IC50 on Aurora1 (Aurora-B) is 0.007 µM.
Same read-out and setting: the value for `CCOC(=O)c1[nH]cc2c1NC1=C(C(=O)CCC1)C2c1ccc(Sc2nc3c(F)c(F)c(F)cc3[nH]2)o1` (stereo not shown) [Example 122, 8-Oxo-9-[5-(4,5,6-trifluoro-1H-benzimidazol-2-ylsulfanyl)-furan-2-yl]-4,5,6,7,8,9-hexahydro-2H-pyrrolo[3,4-b]quinoline-3-carboxylic acid ethyl ester] was 0.007 µM; that for `CCOC(=O)c1[nH]cc2c1NC1=C(C(=O)CCC1)C2c1ccc(Sc2nc3cc(Cl)ccc3[nH]2)o1` (stereo not shown) [Example 129, 9-[5-(5-Chloro-1H-benzimidazol-2-ylsulfanyl)-furan-2-yl]-8-oxo-4,5,6,7,8,9-hexahydro-2H-pyrrolo[3,4-b]quinoline-3-carboxylic acid ethyl ester] was 0.01 µM.
`CCOC(=O)c1[nH]cc2c1NC1=C(C(=O)CCC1)C2c1ccc(Sc2nc3c(F)cc(F)cc3[nH]2)o1` (stereo not shown) [Example 142, 9-[5-(4,6-Difluoro-1H-benzimidazol-2-ylsulfanyl)-furan-2-yl]-8-oxo-4,5,6,7,8,9-hexahydro-2H-pyrrolo[3,4-b]quinoline-3-carboxylic acid ethyl ester]: the IC50 at Aurora1 (Aurora-B) amounted to 0.003 µM.
Same read-out and setting: for `CCOC(=O)c1[nH]cc2c1NC1=C(C(=O)CCC1)C2c1ccc(Sc2nc3cc(F)ccc3[nH]2)o1` (stereo not shown) [Example 148, 9-[5-(5-Fluoro-1H-benzimidazol-2-ylsulfanyl)-furan-2-yl]-8-oxo-4,5,6,7,8,9-hexahydro-2H-pyrrolo[3,4-b]quinoline-3-carboxylic acid ethyl ester] the value was 0.011 µM.
